{"source": "patent US20030229067A1", "about": "“Pyrrolopyrimidine A2b selective antagonist compounds, their synthesis and use” (priority 2001, published 2003)"}
{"smiles": "CC(=O)NCCNc1nc(-c2ccccc2)nc2[nH]c(C(=O)N3C[C@@H](C)NC[C@@H]3C)cc12", "note": "(relative stereo) [26.31, N-{2-[6-(trans-2,5-Dimethylpiperazine-1-carbonyl)-2-phenyl-7H-pyrrolo[2,3-d]pyrimidin-4-ylamino]-ethyl}-acetamide]", "melting point": "120 to 125 °C"}
{"smiles": "COC(=O)c1cccc(OCc2cc3c(NCCNC(C)=O)nc(-c4ccccc4)nc3[nH]2)c1", "note": "[9.19, 3-[4-(2-Acetylaminoethylamino)-2-phenyl-7H-pyrrolo[2,3-d]pyrimidin-6-ylmethoxy]-benzoic acid methyl ester]", "melting point": "80 to 85 °C (dec.)"}
{"smiles": "CC(=O)NCCNc1nc(-c2ccccc2)nc2[nH]c(/C=N/OCc3ccccc3)cc12", "note": "[22.1, N-{2-[6-(Benzyloxyiminomethyl)-2-phenyl-7H-pyrrolo[2,3-d]pyrimidin-4-ylamino]-ethyl}-acetamide]", "melting point": "83 to 87 °C (dec.)"}
{"smiles": "CC(=O)NCCNc1nc(-c2ccccc2)nc2[nH]c(C(=O)N3CCOCC3)cc12", "note": "[26.1, N-{2-[6-(Morpholine-4-carbonyl)-2-phenyl-7H-pyrrolo[2,3-d]pyrimidin-4-ylamino]-ethyl}-acetamide]", "melting point": "250 °C"}
{"smiles": "CC(=O)NCCNc1nc(-c2ccccc2)nc2[nH]c(C(=O)Nc3ccc(Oc4ccccc4)cc3)cc12", "note": "[26.2, 4-(2-Acetylaminoethylamino)-2-phenyl-7H-pyrrolo[2,3-d]pyrimidine-6-carboxylic acid (4-phenoxyphenyl)-amide]", "melting point": "250 to 257 °C (dec.)"}
{"smiles": "CC(=O)NCCNc1nc(-c2ccccc2)nc2[nH]c(C(=O)N3CCC(O)(C(C)C)CC3)cc12", "note": "[26.4, N-{2-[6-(4-Hydroxy4-isopropylpiperidine-1-carbonyl)-2-phenyl-7H-pyrrolo[2,3-d]pyrimidin-4-ylamino]-ethyl}-acetamide]", "melting point": "140 to 145 °C (dec.)"}
{"smiles": "CC(=O)NCCNc1nc(-c2ccccc2)nc2[nH]c(C(=O)N3CCC(O)(c4ccccc4)CC3)cc12", "note": "[26.7, N-{2-[6-(4-Hydroxy4-phenylpiperidine-1-carbonyl)-2-phenyl-7H-pyrrolo[2,3-d]pyrimidin-4-ylamino]-ethyl}-acetamide]", "melting point": "158 to 162 °C (dec.)"}
{"smiles": "CC(=O)NCCNc1nc(-c2ccccc2)nc2[nH]c(C(=O)N3CCC(O)(Cc4ccccc4)CC3)cc12", "note": "[26.8, N-{2-[6-(4-Benzyl-4-hydroxypiperidine-1-carbonyl)-2-phenyl-7H-pyrrolo[2,3-d]pyrimidin-4-ylamino]-ethyl}-acetamide]", "melting point": "140 to 145 °C (dec.)"}
{"smiles": "NC(=O)CNc1nc(-c2ccccc2)nc2[nH]c(C(=O)N3CCC(O)(c4ccc(Cl)cc4)CC3)cc12", "note": "[26.9, 2-{6-[4-(4-Chlorophenyl)-4-hydroxypiperidine-1-carbonyl]-2-phenyl-7H-pyrrolo[2,3-d]pyrimidin-4-ylamino}-acetamide]", "melting point": "200 to 205 °C (dec.)"}
{"smiles": "CC(=O)NCCNc1nc(-c2ccccc2)nc2[nH]c(C(=O)N3CCC(O)(c4cccc(C(F)(F)F)c4)CC3)cc12", "note": "[26.10]", "melting point": "145 to 150 °C"}
{"smiles": "CC(=O)NCCNc1nc(-c2ccccc2)nc2[nH]c(C(=O)N3CCN(CCc4ccccc4)CC3)cc12", "note": "[26.11, N-{2-[6-(4-Phenethylpiperazine-1-carbonyl)-2-phenyl-7H-pyrrolo[2,3-d]pyrimidin-4-ylamino]-ethyl}-acetamide]", "melting point": "226 to 228 °C"}
{"smiles": "CC(=O)NCCNc1nc(-c2ccccc2)nc2[nH]c(C(=O)N3CCN(CCCN4CCOCC4)CC3)cc12", "note": "[26.12, N-(2-{6-[4-(3-Morpholin-4-ylpropyl)-piperazine-1-carbonyl]-2-phenyl-7H-pyrrolo[2,3-d]pyrimidin-4-ylamino}-ethyl)-acetamide]", "melting point": "225 to 230 °C (dec.)"}
{"smiles": "CC(=O)NCCNc1nc(-c2ccccc2)nc2[nH]c(C(=O)N3CC=C(c4ccc(Cl)cc4)CC3)cc12", "note": "[26.13, N-(2-{6-[4-(4-Chlorophenyl)-3,6-dihydro-2H-pyridine-17carbonyl]-2-phenyl-7H-pyrrolo[2,3-d]pyrimidin-4-ylamino}-ethyl)-acetamide]", "melting point": "172 to 175 °C"}
{"smiles": "CC(=O)NCCNc1nc(-c2ccccc2)nc2[nH]c(C(=O)N3CCN(Cc4ccccc4)CC3)cc12", "note": "[26.14, N-{2-[6-(4-Benzylpiperazine-1-carbonyl)-2-phenyl-7H-pyrrolo[2,3-d]pyrimidin-4-ylamino]-ethyl}-acetamide]", "melting point": "235 to 240 °C (dec.)"}
{"smiles": "NC(=O)CNc1nc(-c2ccccc2)nc2[nH]c(C(=O)N3CCN(CCCc4ccccc4)CC3)cc12", "note": "[26.15, 2-{2-Phenyl-6-[4-(3-phenylpropyl)-piperazine-1-carbonyl]-7H-pyrrolo[2,3-d]pyrimidin-4-ylamino}-acetamide]", "melting point": "213 to 217 °C"}
{"smiles": "CC(=O)NCCNc1nc(-c2ccccc2)nc2[nH]c(C(=O)N3CCN(CCOc4ccc(Cl)cc4)CC3)cc12", "note": "[26.16, N-[2-(6-{4-[2-(4-Chlorophenoxy)-ethyl]-piperazine-1-carbonyl}-2-phenyl-7H-pyrrolo[2,3-d]pyrimidin-4-ylamino)-ethyl]-acetamide]", "melting point": "227 to 228 °C"}
{"smiles": "CC(=O)NCCNc1nc(-c2ccccc2)nc2[nH]c(C(=O)NC3CC4CCC3C4)cc12", "note": "(stereo not shown) [26.17]", "melting point": "280 to 285 °C (dec.)"}
{"smiles": "CC(=O)NCCNc1nc(-c2ccccc2)nc2[nH]c(C(=O)N3CCC(O)(c4ccc(F)cc4)CC3)cc12", "note": "[26.18, N-(2-{6-[4-(4-Fluorophenyl)4-hydroxypiperidine-1-carbonyl]-2-phenyl-7H-pyrrolo[2,3-d]pyrimidin-4-ylamino}-ethyl)-acetamide]", "melting point": "150 to 153 °C"}
{"smiles": "CC(=O)NCCNc1nc(-c2ccccc2)nc2[nH]c(C(=O)N3CCC(C#N)(c4ccccc4)CC3)cc12", "note": "[26.19, N-{2-[6-(4-Cyano-4-phenylpiperidine-1-carbonyl)-2-phenyl-7H-pyrrolo[2,3-d]pyrimidin-4-ylamino]-ethyl}-acetamide]", "melting point": "150 to 155 °C (dec.)"}
{"smiles": "CC(=O)NCCNc1nc(-c2ccccc2)nc2[nH]c(C(=O)Nc3cccc(Oc4ccccc4)c3)cc12", "note": "[26.20, 4-(2-Acetylaminoethylamino)-2-phenyl-7H-pyrrolo[2,3-d]pyrimidine-6-carboxylic acid (3-phenoxyphenyl)-amide]", "melting point": "140 to 142 °C"}
{"smiles": "CC(=O)NCCNc1nc(-c2ccccc2)nc2[nH]c(C(=O)N3CCN(CC#Cc4ccccc4)CC3)cc12", "note": "[26.21, N-(2-{2-Phenyl-6-[4-(3-phenylprop-2-ynyl)-piperazine-1-carbonyl]-7H-pyrrolo[2,3-d]pyrimidin-4-ylamino}-ethyl)-acetamide]", "melting point": "213 to 215 °C"}
{"smiles": "CC(=O)NCCNc1nc(-c2ccccc2)nc2[nH]c(C(=O)N3C[C@@H](C)N[C@@H](C)C3)cc12", "note": "[26.22, N-{2-[6-(cis-3,5-Dimethylpiperazine-1-carbonyl)-2-phenyl-7H-pyrrolo[2,3-d]pyrimidin-4-ylamino]-ethyl}-acetamide]", "melting point": "138 to 140 °C"}
{"smiles": "CC(=O)NCCNc1nc(-c2ccccc2)nc2[nH]c(C(=O)N3C[C@@H](C)N(CCCc4ccccc4)[C@@H](C)C3)cc12", "note": "[26.24, N-(2-{6-[cis-3,5-Dimethyl-4-(3-phenylpropyl)-piperazine-1-carbonyl]-2-phenyl-7H-pyrrolo[2,3-d]pyrimidin-4-ylamino}-ethyl)-acetamide]", "melting point": "86 to 89 °C"}
{"smiles": "CC(=O)NCCNc1nc(-c2ccccc2)nc2[nH]c(C(=O)N3CCC(c4ccccc4)(c4ccccc4)CC3)cc12", "note": "[26.25, N-{2-[6-(4,4-Diphenylpiperidine-1-carbonyl)-2-phenyl-7H-pyrrolo[2,3-d]pyrimidin-4-ylamino]-ethyl}-acetamide]", "melting point": "254 to 256 °C"}
{"smiles": "CC(=O)NCCNc1nc(-c2ccccc2)nc2[nH]c(C(=O)N3CCCC(c4ccccc4)(c4ccccc4)C3)cc12", "note": "[26.26, N-{2-[6-(3,3-Diphenylpiperidine-1-carbonyl)-2-phenyl-7H-pyrrolo[2,3-d]pyrimidin-4-ylamino]-ethyl}-acetamide]", "melting point": "156 to 159 °C (dec.)"}
{"smiles": "COC1(c2ccccc2)CCN(C(=O)c2cc3c(NCCNC(C)=O)nc(-c4ccccc4)nc3[nH]2)CC1", "note": "[26.27, N-{2-[6-(4-Methoxy-4-phenylpiperidine-1-carbonyl)-2-phenyl-7H-pyrrolo[2,3-d]pyrimidin-4-ylamino]-ethyl}-acetamide]", "melting point": "135 to 138 °C"}
{"smiles": "CC(=O)NCCNc1nc(-c2ccccc2)nc2[nH]c(C(=O)N3CCC(Cc4ccc(F)cc4)CC3)cc12", "note": "[26.28, N-(2-{6-[4-(4-Fluorobenzyl)-piperidine-1-carbonyl]-2-phenyl-7H-pyrrolo[2,3-d]pyrimidin-4-ylamino}-ethyl)-acetamide]", "melting point": "283 to 284 °C (dec.)"}
{"smiles": "CC(=O)NCCNc1nc(-c2ccccc2)nc2[nH]c(C(=O)N3CCC(C(O)c4ccc(F)cc4)CC3)cc12", "note": "(stereo not shown) [26.29]", "melting point": "135 to 145 °C (dec.)"}
{"smiles": "CC(=O)NCCNc1nc(-c2ccccc2)nc2[nH]c(C(=O)N3C[C@@H](C)N(CCCc4ccccc4)C[C@@H]3C)cc12", "note": "[26.30]", "melting point": "98 to 100 °C"}
{"smiles": "CC(=O)NCCNc1nc(-c2ccccc2)nc2[nH]c(C(=O)N3C[C@@H](C)N(Cc4ccccc4)[C@@H](C)C3)cc12", "note": "[26.32]", "melting point": "196 to 198 °C"}
{"smiles": "CC(=O)NCCNc1nc(-c2ccccc2)nc2[nH]c(C(=O)N3C[C@@H](C)N(CCc4ccccc4)[C@@H](C)C3)cc12", "note": "[26.33, N-{2-[6-(cis-3,5-Dimethyl-4-phenethylpiperazine-1-carbonyl)-2-phenyl-7H-pyrrolo[2,3-d]pyrimidin-4-ylamino]-ethyl}-acetamide]", "melting point": "110 to 115 °C (dec.)"}
{"smiles": "CC(=O)NCCNc1nc(-c2ccccc2)nc2[nH]c(C(=O)N3CCN(c4ccccn4)CC3)cc12", "note": "[26.35, N-{2-[2-Phenyl-6-(4-pyridin-2-yl-piperazine-1-carbonyl)-7H-pyrrolo[2,3-d]pyrimidin-4-ylamino]-ethyl}-acetamide]", "melting point": "223 to 226 °C (dec.)"}
{"smiles": "CC(=O)NCCNc1nc(-c2ccccc2)nc2[nH]c(C(=O)N3CCCC(C)(c4ccccc4)C3)cc12", "note": "(stereo not shown) [26.36, N-{2-[6-(3-Methyl-3-phenylpiperidine-1-carbonyl)-2-phenyl-7H-pyrrolo[2,3-d]pyrimidin-4-ylamino]-ethyl}-acetamide]", "melting point": "140 to 145 °C"}
{"smiles": "CC(=O)NCCNc1nc(-c2ccccc2)nc2[nH]c(C(=O)N3CCN(c4ncccc4C(F)(F)F)CC3)cc12", "note": "[26.37, N-(2-{2-Phenyl-6-[4-(3-trifluoromethylpyridin-2-yl)-piperazine-1-carbonyl]-7H-pyrrolo[2,3-d]pyrimidin-4-ylamino}-ethyl)-acetamide]", "melting point": "225 to 228 °C"}
